In patent US20090203753A1, “7-(2-amino-1-hydroxy-ethyl)-4-hydroxybenzothiazol-2(3H)-one-derivatives as beta2 adrenoreceptor agonists” (AstraZeneca AB, priority 2005, published 2009):

Molecular target: T1, β2 receptor (Homo sapiens, UniProt P07550)
T1 construct: endogenous in cells; host or cells: H292 cells
Test: β2 mediated cAMP production in H292 cells, AlphaScreen cAMP detection (10 minutes with test compound)
Type: cell-based
Description: H292 cells were grown in RPMI (Roswell Park Memorial Institute) medium containing, 10% (v/v) FBS (foetal bovine serum) and 2 mM L-glutamine. Cells were grown in 225 cm2 flasks containing 25 mL media in a humidified incubator at 37° C., 5% CO2. Cells were harvested from the flask and passaged at a 1 in 10 dilution once per week.
The media from flasks containing H292 cells was removed, rinsed with 10 mL PBS (phosphate buffered saline) and replaced with 10 mL Accutase™ cell detachment solution. Flasks were incubated for 15 minutes in a humidified incubator at 37° C., 5% CO2. The cell suspension was counted and the cells re-suspended in RPMI media (containing 10% (v/v) FBS and 2 mM L-glutamine) at 0.05×10^6 cells per mL. 5000 cells in 100 μL were added to each well of a tissue-culture-treated 96-well plate and the cells incubated overnight in a humidified incubator at 37° C., 5% CO2. The culture media was removed, washed twice with 100 μL assay buffer and replaced with 50 μL assay buffer. Cells were rested at room temperature for 20 minutes after which time 25 μL of rolipram (1.2 mM made up in assay buffer containing 2.4% (v/v) dimethylsulphoxide) was added. Cells were incubated with rolipram for 10 minutes after which time test compounds (made up as ×4 concentrated stocks in assay buffer containing 4% (v/v) dimethylsulphoxide) were added and the cells were incubated for 10 minutes at room temperature. Final rolipram concentration in the assay was 300 μM and final vehicle concentration was 1.6% (v/v) dimethylsulphoxide. The reaction was stopped by removing supernatants, washing once with 100 μL assay buffer and replacing with 50 μL lysis buffer. The cell monolayer was frozen at −80° C. for 30 minutes (or overnight).
The concentration of cAMP (cyclic adenosine monophosphate) in the cell lysate was determined using the AlphaScreen™ methodology. The frozen cell plate was thawed for 20 minutes on a plate shaker then 10 μL of the cell lysate was transferred to a 96-well white plate. 40 μL of mixed AlphaScreen™ detection beads (containing equal volumes of donor beads (pre-incubated with biotinylated cAMP in the dark for 30 minutes) and acceptor beads), was added to each well and the plate incubated at room temperature for 10 hours in the dark. The AlphaScreen™ signal was measured using an EnVision spectrophotometer (Perkin-Elmer Inc.) with the recommended manufacturer's settings. cAMP concentrations were determined by reference to a calibration curve determined in the same experiment using standard cAMP concentrations (made up in lysis buffer in a 96-well tissue-culture-treated plate and frozen/thawed alongside the test samples) and detected using the same protocol. Concentration response curves for agonists were constructed to determine both the pEC50 and Intrinsic Activity.

T1 sequence (P07550 whole entry): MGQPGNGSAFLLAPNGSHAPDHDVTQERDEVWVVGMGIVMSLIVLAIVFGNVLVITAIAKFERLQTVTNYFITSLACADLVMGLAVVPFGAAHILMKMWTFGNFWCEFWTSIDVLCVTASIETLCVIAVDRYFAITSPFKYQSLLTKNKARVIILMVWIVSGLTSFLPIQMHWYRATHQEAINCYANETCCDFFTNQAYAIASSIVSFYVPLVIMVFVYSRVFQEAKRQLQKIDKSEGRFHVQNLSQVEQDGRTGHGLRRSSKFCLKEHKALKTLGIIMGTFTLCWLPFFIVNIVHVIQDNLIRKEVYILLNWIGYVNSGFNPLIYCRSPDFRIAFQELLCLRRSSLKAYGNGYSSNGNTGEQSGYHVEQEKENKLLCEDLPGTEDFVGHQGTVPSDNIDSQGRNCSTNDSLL

Question: Which results are given for CCN(CC)CCN(CCNC[C@H](O)c1ccc(O)c2[nH]c(=O)sc12)C(=O)CCOCCc1ccccc1 [Example 7, N-[2-(Diethylamino)ethyl]-N-(2-{[(2R)-2-hydroxy-2-(4-hydroxy-2-oxo-2,3-dihydro-1,3-benzothiazol-7-yl)ethyl]amino}ethyl)-3-(2-phenylethoxy)propanamide]?
Answer: EC50 (cAMP, 10 minutes incubation with compound, 300 μM rolipram): 2.51 nM; Intrinsic Activity (fraction relative to the maximum activity determined for formoterol, 10 minutes incubation): 1.1
